{"source": "patent US10690666B2", "about": "“Methods and compositions for modulating TH-GM cell function” (National University of Singapore, priority 2014, dated 2020)", "type_in_all_cases": "cell-based, mouse", "key": {"neutrophils [1]": {"system": "neutrophils", "assay": "Neutrophil apoptosis, Annexin V and PI co-staining", "details": "20 ng/ml, 24 h", "procedure": "(§1) FIGS. 33A-33C depicts GM-CSF enhances neutrophil transmigration and delay apoptosis in vitro. (FIG. 33A) Percentages of migrated neutrophils with or without GM-CSF as chemoattractant in transmigration assay at 3 h post start. (FIG. 33B) Microscopic images of CFSE-labeled neutrophils in the bottom of the lower chamber in transmigration assay. (FIG. 33C) Sorted neutrophils were cultured in vitro with or without GM-CSF (20 ng/ml) for 24 h. Neutrophils undergoing apoptosis were examined by Annexin V and propidium iodide (PI) co-staining. A representative flow cytometry of three repeats was shown. *p<0.05.\n(§2) Neutrophils are recruited during inflammation, in which complex interactions between neutrophils and vascular endothelial cells direct neutrophil adhesion and transmigration from circulation to inflamed tissues (Kolaczkowska and Kubes, 2013). […] Effective neutrophil apoptosis is crucial for the resolution of inflammation. However, in synovitis, neutrophil apoptosis is delayed with a result of extended survival and persistent inflammation (Wright et al., 2014). […] To determine the critical role of neutrophils in AIA, \\ neutralizing antibody (1A8) specific for Ly6G was used to deplete neutrophils in vivo. […] Thus, neutrophils accumulation mediated by TH-cell-derived GM-CSF are important for AIA development."}, "neutrophils [2]": {"system": "neutrophils", "assay": "In vitro neutrophil transmigration assay", "details": "as chemoattractant; 3 h", "procedure": "as §1, §2"}, "BMDCs": {"system": "BMDCs", "assay": "Cytokine expression by bone marrow-derived dendritic cells (BMDCs)", "description": "FIGS. 34A-34I depicts GM-CSF mediates proinflammatory cytokine expression by myeloid cells and synovial fibroblasts in arthritic mice. Synovial tissues were dissected from wild-type AIA mice and dissociated into single cell suspensions. (FIG. 34A) Flow cytometry plots depicting the fractionation into different populations based on differential expression of surface markers. (FIG. 34B) The mRNA expression of several proinflammatory cytokines in sorted CD45^+ TCRβ^+ (TCRβ^+ in short), CD45^+ TCRβ^−CD11c^−CD11b^+ (CD11b^+) and CD45^+ TCRβ^−CD11c^+ (CD11c^+) populations was measured by qPCR. The qPCR data were normalized to GAPDH. (FIG. 34C) The mRNA expression of IL-6, IL-1β and TNF-α in sorted Ly6C^hiLy6G^− and Ly6C^loLy6G^hi populations (gated on CD11b^+ cells). The qPCR data were normalized to GAPDH. (FIGS. 34D and 34E) The mRNA expression of IL-6 and IL-1β by BMDMs (FIG. 34D) and BMDCs (FIG. 34E) upon stimulation with 20 ng/ml GM-CSF for 1 h. The qPCR data were normalized to GAPDH. (FIGS. 34F and 34G) BMDMs (FIG. 34F) and BMDCs (FIG. 34G) were stimulated with GM-CSF at indicated concentrations (n=3 per group) for 18 h. The secretion of IL-6 in the culture supernatant was quantified by ELISA. (FIG. 34H) BMDMs were primed with LPS ([…]) in the presence of GM-CSF at indicated concentrations (n=3 per group) for 6 h, followed by stimulation with ATP (5 mM) for 30 min. The secretion of IL-1β in the culture supernatant was quantified by ELISA. (FIG. 34I) Cells were cultured in DMEM medium supplemented with 10% FBS for over 20 days with more than 5 passages to obtain synovial fibroblasts. Synovial fibroblasts were stimulated with GM-CSF (20 ng/ml) for 1 h and harvested for RNA extraction. The mRNA expression of IL-1β was measured by qPCR. The qPCR data were normalized to GAPDH. All data shown represent two independent experiments. *p<0.05, **p<0.01.\nTo test the regulatory role of GM-CSF in the expression of IL-6 and IL-1β, bone marrow-derived macrophages (BMDMs) and bone marrow-derived dendritic cells (BMDCs) were cultured, and stimulated with GM-CSF. […]"}}}
{"substance": "GM-CSF: granulocyte macrophage colony-stimulating factor (ImmunoTools) given intraarticularly or added to cell cultures", "values": [{"measurement": "neutrophil apoptosis", "setting": "neutrophils [1]", "result": "profound efficacy in delaying neutrophil apoptosis"}, {"measurement": "neutrophil adhesion and migration across monolayers of endothelial cells", "setting": "neutrophils [2]", "result": "significantly enhanced"}, {"measurement": "mRNA expression of IL-6 and IL-1β in BMDCs", "setting": "BMDCs; 20 ng/ml, 1 h", "result": "quickly upregulated"}, {"measurement": "secretion of IL-6 from BMDCs", "setting": "BMDCs; 18 h, ELISA", "result": "markedly increased"}, {"measurement": "TNF-α expression in BMDCs", "setting": "BMDCs; data not shown", "result": "not observed"}]}
